From publication PMC10728186, “Acid phosphatase-like proteins, a biogenic amine and leukotriene-binding salivary protein family from the flea Xenopsylla cheopis” (Communications Biology, 2023)
Like-named read-outs stand apart in the source and are kept apart here.

How the values were obtained:
Type in all cases: binding
XcAP-1 [1] = target: T1, XcAP-1 (Xenopsylla cheopis, UniProt A2IA89); assay: isothermal titration calorimetry
T1 construct: mature ORF (no signal peptide) in VR1020 vector, secreted from HEK293 / Expi293; monomer; residues Asp7-Asn361 (mature count) seen in crystal; natural Gly and Ser in place of the two catalytic His
T1 sequence (A2IA89 17-374): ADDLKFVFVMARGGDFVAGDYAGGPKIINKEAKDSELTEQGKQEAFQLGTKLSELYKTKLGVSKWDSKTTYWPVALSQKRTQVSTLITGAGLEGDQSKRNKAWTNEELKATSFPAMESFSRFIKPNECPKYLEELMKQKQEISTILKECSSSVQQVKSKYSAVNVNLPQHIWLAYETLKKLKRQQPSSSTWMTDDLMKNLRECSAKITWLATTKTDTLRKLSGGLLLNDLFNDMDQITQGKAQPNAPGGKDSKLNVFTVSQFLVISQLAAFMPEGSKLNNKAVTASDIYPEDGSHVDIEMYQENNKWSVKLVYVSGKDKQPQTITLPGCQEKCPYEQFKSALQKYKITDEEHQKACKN
Text: isothermal titration calorimetry on XcAP-1

XcAP-3 = target: T2, XcAP-3 (Xenopsylla cheopis, UniProt A2IA90); assay: isothermal titration calorimetry
T2 construct: mature ORF (no signal peptide) in pcDNA3.1(+), secreted from HEK293 / Expi293; natural Gly and Pro in place of the two catalytic His; Thr10, Ile229, Lys266 (mature count)
T2 sequence (A2IA90 20-380): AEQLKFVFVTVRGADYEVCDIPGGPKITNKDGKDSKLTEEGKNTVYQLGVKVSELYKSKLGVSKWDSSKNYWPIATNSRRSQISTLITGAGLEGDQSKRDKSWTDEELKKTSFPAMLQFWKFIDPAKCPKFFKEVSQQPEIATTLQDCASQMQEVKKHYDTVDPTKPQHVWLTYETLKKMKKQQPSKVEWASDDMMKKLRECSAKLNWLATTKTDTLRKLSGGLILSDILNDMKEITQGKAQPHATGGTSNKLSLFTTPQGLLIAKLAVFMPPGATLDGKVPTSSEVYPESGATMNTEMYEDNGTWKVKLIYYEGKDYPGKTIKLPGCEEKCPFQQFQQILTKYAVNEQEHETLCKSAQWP
Text: isothermal titration calorimetry on XcAP-3

XcAP-2 = target: T3, XcAP-2 (Xenopsylla cheopis, UniProt A2IA93); assay: isothermal titration calorimetry
T3 construct: mature ORF (no signal peptide) in pcDNA3.1(+), secreted from HEK293 / Expi293; natural Gly and Pro in place of the two catalytic His; Thr10, Ile228, His265 (mature count)
T3 sequence (A2IA93 20-378): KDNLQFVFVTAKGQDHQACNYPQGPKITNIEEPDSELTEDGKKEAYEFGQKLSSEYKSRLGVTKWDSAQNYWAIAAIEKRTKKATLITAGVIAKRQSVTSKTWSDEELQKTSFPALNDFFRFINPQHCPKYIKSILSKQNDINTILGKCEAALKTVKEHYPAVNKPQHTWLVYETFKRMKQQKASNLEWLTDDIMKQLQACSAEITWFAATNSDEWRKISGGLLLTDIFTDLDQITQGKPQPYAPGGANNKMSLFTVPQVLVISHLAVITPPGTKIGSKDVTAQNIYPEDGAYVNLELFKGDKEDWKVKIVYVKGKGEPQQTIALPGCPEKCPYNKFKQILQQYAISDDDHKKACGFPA
Text: isothermal titration calorimetry on XcAP-2

XcAP-1 [2] = target: T1, XcAP-1; assay: isothermal titration calorimetry; crystal structure […] A
XcAP-1 [3] = target: T1, XcAP-1; assay: crystal structure […] A; settings: co-purified from HEK293 culture, modelled from density; pocket near substituted catalytic residues; second site beside serotonin

CNC[C@H](O)c1ccc(O)c(O)c1 [Epinephrine]
Kd (XcAP-1 [1]; read-out: XcAP-1): 17.7 nM

NCCc1c[nH]cn1 [Histamine]
Kd (XcAP-3; read-out: K (M^-1) (converted)): 29.2 nM | Kd (XcAP-3; read-out: XcAP-3): 37 nM | Kd (XcAP-2; read-out: K (M^-1) (converted)): 43.9 nM | Kd (XcAP-2; read-out: XcAP-2): 37.7 nM

CCCCC/C=C\C[C@@H](O)/C=C/C=C/C=C\[C@@H](O)CCCC(=O)O [LTB4]
Kd (XcAP-2; read-out: XcAP-2): 111 nM

CCCCC/C=C\C\C=C/C=C/C=C/[C@@H](SC[C@H](NC(=O)CC[C@H](N)C(=O)O)C(=O)NCC(=O)O)[C@@H](O)CCCC(=O)O [LTC4]
Kd (XcAP-1 [1]; read-out: XcAP-1): 37.4 nM | Kd (XcAP-3; read-out: XcAP-3): 65.8 nM | Kd (XcAP-2; read-out: XcAP-2): 78.7 nM

CCCCC/C=C\C\C=C/C=C/C=C/[C@@H](SC[C@H](N)C(=O)NCC(=O)O)[C@@H](O)CCCC(=O)O [LTD4]
Kd (XcAP-2; read-out: XcAP-2): 153 nM

CCCCC/C=C\C\C=C/C=C/C=C/[C@@H](SC[C@H](N)C(=O)O)[C@@H](O)CCCC(=O)O [LTE4]
Kd (XcAP-2; read-out: XcAP-2): 60.2 nM

NC[C@H](O)c1ccc(O)c(O)c1 [Norepinephrine]
Kd (XcAP-1 [1]; read-out: XcAP-1): 76.9 nM

NCCc1c[nH]c2ccc(O)cc12 [Serotonin]
Kd (XcAP-1 [2]): 3.72 nM | Kd (XcAP-1 [1]; read-out: K (M^-1) (converted)): 5.92 nM

CCCCCC/C=C\CCCCCCCC(=O)O [palmitoleic acid]
crystal structure 1.75 A (XcAP-1 [3]): near the putative catalytic site of XcAP-1 was also observed, in which we modeled a palmitoleic acid
